Experiment: LogP by HPLC on reversed phase columns (EEC directive 79/831 Annex V.A8)
Conditions: Table 1, formula (I); LC-UV, acidic range, 0.1% formic acid in water and acetonitrile
Procedure: Measurement of LogP values was performed according to EEC directive 79/831 Annex V.A8 by HPLC (High Performance Liquid Chromatography) on reversed phase columns with the following methods:
Lambda-max-values were determined using UV-spectra from 200 nm to 400 nm and the peak values of the chromatographic signals.

| SMILES | LogP [a] |
| --- | --- |
| CC(O)(Cn1cncn1)c1cnc(Oc2ccc(Cl)cc2)cc1Cl (racemic) [I.08] | 2.50^[a] |
| CC(O)(Cn1cncn1)c1ccc(Oc2ccc(Cl)cc2)nc1Cl (racemic) [I.09] | 2.66^[a] |
| OC(Cn1cncn1)c1cnc(Oc2ccc(S(F)(F)(F)(F)F)cc2)cc1C(F)(F)F (racemic) [I.36] | 3.15^[a] |
| OC(Cn1cncn1)c1cnc(Oc2ccc(C(F)(F)F)cc2)cc1C(F)(F)F (racemic) [I.47] | 2.84^[a] |
| CC(O)(Cn1cncn1)c1ccc(Oc2ccc(OC(F)(F)F)cc2)nc1C(F)(F)F (racemic) [I.95] | 2.98^[a] |
| CC(O)(Cn1cncn1)c1ccc(Oc2ccc(Cl)cc2)nc1C(F)(F)F (racemic) [I.96] | 2.68^[a] |
| OC(Cn1cncn1)(c1ccc(Oc2ccc(S(F)(F)(F)(F)F)cc2)nc1C(F)(F)F)C1CC1 (racemic) [I.97] | 3.80^[a] |
| CCCCC(O)(Cn1cncn1)c1ccc(Oc2ccc(Cl)cc2)nc1C(F)(F)F (racemic) [I.98] | 3.87^[a] |
| CCCC(O)(Cn1cncn1)c1ccc(Oc2ccc(Cl)cc2)nc1C(F)(F)F (racemic) [I.100] | 3.55^[a] |
| CCC(O)(Cn1cncn1)c1ccc(Oc2ccc(Cl)cc2)nc1C(F)(F)F (racemic) [I.103] | 3.19^[a] |
| CC(O)(Cn1cncn1)c1cnc(Oc2ccc(Cl)cc2)cc1C(F)(F)F (single isomer, unassigned) [I.45] | 2.84^[a] |
| CC(O)(Cn1cncn1)c1cnc(Oc2ccc(Cl)cc2)cc1C(F)(F)F (single isomer, unassigned) [I.46] | 2.93^[a] |
| CC(O)(Cn1cncn1)c1ccc(Oc2ccc(Cl)cc2)nc1Cl (single isomer, unassigned) [I.51] | 2.62^[a] |
| CC(O)(Cn1cncn1)c1ccc(Oc2ccc(Cl)cc2)nc1Cl (single isomer, unassigned) [I.52] | 2.62^[a] |
| CC(O)(Cn1cncn1)c1cnc(Oc2ccc(Cl)cc2)cc1Cl (single isomer, unassigned) [I.53] | 2.53^[a] |
| CC(O)(Cn1cncn1)c1cnc(Oc2ccc(Cl)cc2)cc1Cl (single isomer, unassigned) [I.54] | 2.53^[a] |
| OC(Cn1cncn1)c1cnc(Oc2ccc(C(F)(F)F)cc2)cc1C(F)(F)F (single isomer, unassigned) [I.72] | 2.86^[a] |
| OC(Cn1cncn1)c1cnc(Oc2ccc(S(F)(F)(F)(F)F)cc2)cc1C(F)(F)F (single isomer, unassigned) [I.83] | 3.11^[a] |
| OC(Cn1cncn1)(c1ccc(Oc2ccc(Br)cc2)nc1C(F)(F)F)C1CC1 (single isomer, unassigned) [I.84] | 3.41 ^[a] |
| OC(Cn1cncn1)c1cnc(Oc2ccc(S(F)(F)(F)(F)F)cc2)cc1C(F)(F)F (single isomer, unassigned) [I.86] | 3.11^[a] |
| OC(Cn1cncn1)c1cnc(Oc2ccc(C(F)(F)F)cc2)cc1C(F)(F)F (single isomer, unassigned) [I.92] | 2.86^[a] |
| OC(Cn1cncn1)(c1ccc(Oc2ccc(Br)cc2)nc1C(F)(F)F)C1CC1 (single isomer, unassigned) [I.99] | 3.41^[a] |
| CC(O)(Cn1cncn1)c1ccc(Oc2ccc(Br)cc2)nc1C(F)(F)F (single isomer, unassigned) [I.101] | 2.94^[a] |
| CC(O)(Cn1cncn1)c1ccc(Oc2ccc(Br)cc2)nc1C(F)(F)F (single isomer, unassigned) [I.102] | 2.94^[a] |
| CC(O)(Cn1cncn1)c1cnc(Oc2ccccc2)cc1Cl (centres unmarked) [I.05] | 2.10 |

| SMILES | LogP [a] |
| --- | --- |
| CC(O)(Cn1cncn1)c1ncc(Oc2ccccc2)cc1Cl (centres unmarked) [I.06] | 2.47 |
| CC(O)(Cn1cncn1)c1ccc(Oc2ccccc2)nc1Cl (centres unmarked) [I.07] | 2.14 |
| OC(Cn1cncn1)c1ccc(Oc2ccc(Cl)c(Cl)c2)nc1Cl (centres unmarked) [I.10] | 2.80^[a] |
| OC(Cn1cncn1)c1ccc(Oc2ccc(OC(F)(F)F)c(Cl)c2)nc1Cl (centres unmarked) [I.11] | 3.11^[a] |
| OC(Cn1cncn1)c1ccc(Oc2ccc(OC(F)(F)F)cc2)nc1Cl (centres unmarked) [I.12] | 2.73^[a] |
| OC(Cn1cncn1)c1ccc(Oc2ccccc2)nc1Cl (centres unmarked) [I.13] | 1.98^[a] |
| OC(Cn1cncn1)c1ccc(Oc2ccc(Cl)cc2)nc1Cl (centres unmarked) [I.14] | 2.42^[a] |
| Cc1cc(Cl)ccc1Oc1ccc(C(O)Cn2cncn2)c(Cl)n1 (centres unmarked) [I.15] | 2.75^[a] |
| Cc1ccc(Oc2ccc(C(O)Cn3cncn3)c(Cl)n2)cc1Cl (centres unmarked) [I.16] | 2.73^[a] |
| OC(Cn1cncn1)c1ccc(Oc2ccc(F)cc2)nc1Cl (centres unmarked) [I.17] | 2.08^[a] |
| OC(Cn1cncn1)c1ccc(Oc2ccc(F)cc2F)nc1Cl (centres unmarked) [I.18] | 2.18^[a] |
| OC(Cn1cncn1)c1ccc(Oc2ccccc2F)nc1Cl (centres unmarked) [I.19] | 2.08^[a] |
| OC(Cn1cncn1)c1ccc(Oc2cc(F)c(F)c(F)c2)nc1Cl (centres unmarked) [I.20] | 1.65^[a] |
| OC(Cn1cncn1)c1cnc(Oc2ccccc2)cc1Cl (centres unmarked) [I.21] | 1.92^[a] |
| OC(Cn1cncn1)c1ncc(Oc2ccccc2)cc1Cl (centres unmarked) [I.22] | 2.01^[a] |
| OC(Cn1cncn1)c1ccc(Oc2ccc(Cl)cc2Cl)nc1Cl (centres unmarked) [I.23] | 2.75^[a] |
| CC(O)c1ccc(Oc2ccc(C(O)Cn3cncn3)c(Cl)n2)cc1 (centres unmarked) [I.24] | 1.48^[a] |
| OC(Cn1cncn1)c1ccc(Oc2ccc(Cl)cc2)nc1C(F)F (centres unmarked) [I.25] | 2.44^[a] |
| OC(Cn1cncn1)c1ccc(Oc2ccc(Cl)cc2)nc1OC(F)(F)F (centres unmarked) [I.26] | 2.92^[a] |
| CC(O)(Cn1cncn1)c1ccc(Oc2ccc(F)cc2)nc1Cl (centres unmarked) [I.27] | 2.28^[a] |
| Cc1cc(Cl)ccc1Oc1ccc(C(C)(O)Cn2cncn2)c(Cl)n1 (centres unmarked) [I.28] | 2.94^[a] |
| Cc1ccc(Oc2ccc(C(C)(O)Cn3cncn3)c(Cl)n2)cc1Cl (centres unmarked) [I.29] | 3.00^[a] |
| COc1ccc(Oc2ccc(C(O)Cn3cncn3)c(Cl)n2)c(Cl)c1 (centres unmarked) [I.30] | 2.32^[a] |
| COc1ccc(Oc2ccc(C(C)(O)Cn3cncn3)c(Cl)n2)c(Cl)c1 (centres unmarked) [I.31] | 2.56^[a] |
| CC(O)(Cn1cncn1)c1ccc(Oc2ccc(Cl)c(Cl)c2)nc1Cl (centres unmarked) [I.32] | 3.09^[a] |

| SMILES | LogP [a] |
| --- | --- |
| CC(O)(Cn1cncn1)c1ccc(Oc2ccc(Cl)cc2)nc1OC(F)(F)F (centres unmarked) [I.33] | 3.29^[a] |
| OC(Cn1cncn1)c1ccc(Oc2ccc(S(F)(F)(F)(F)F)cc2)nc1Cl (centres unmarked) [I.34] | 2.90^[a] |
| CC(O)(Cn1cncn1)c1ccc(Oc2ccc(S(F)(F)(F)(F)F)cc2)nc1Cl (centres unmarked) [I.35] | 3.17^[a] |
| CC(O)(Cn1cncn1)c1cnc(Oc2ccc(S(F)(F)(F)(F)F)cc2)cc1C(F)(F)F (centres unmarked) [I.37] | 3.33^[a] |
| OC(Cn1cncn1)c1ccc(Oc2ccc(C(F)F)cc2)nc1Cl (centres unmarked) [I.38] | 2.17^[a] |
| CC(O)(Cn1cncn1)c1ccc(Oc2ccc(C(F)F)cc2)nc1Cl (centres unmarked) [I.39] | 2.41^[a] |
| OC(Cn1cncn1)c1ccc(Oc2ccc(Br)cc2)nc1C(F)(F)F (centres unmarked) [I.40] | 2.82^[a] |
| OC(Cn1cncn1)c1ccc(Oc2ccc(Cl)cc2)nc1F (centres unmarked) [I.41] | 2.23^[a] |
| CC(O)(Cn1cncn1)c1ccc(Oc2ccc(Cl)cc2)nc1F (centres unmarked) [I.42] | 2.46^[a] |
| OC(Cn1cncn1)c1cnc(Oc2ccc(OC(F)(F)F)cc2)cc1C(F)(F)F (centres unmarked) [I.43] | 3.00^[a] |
| CC(O)(Cn1cncn1)c1cnc(Oc2ccc(OC(F)(F)F)cc2)cc1C(F)(F)F (centres unmarked) [I.44] | 3.23^[a] |
| OC(Cn1cncn1)c1cnc(Oc2ccc(Br)cc2)cc1C(F)(F)F (centres unmarked) [I.48] | 2.75^[a] |
| CC(O)(Cn1cncn1)c1cnc(Oc2ccc(Br)cc2)cc1C(F)(F)F (centres unmarked) [I.49] | 2.96^[a] |
| CC(O)(Cn1cncn1)c1cnc(Oc2ccc(C(F)(F)F)cc2)cc1C(F)(F)F (centres unmarked) [I.50] | 3.11^[a] |
| OC(Cn1cncn1)c1cnc(Oc2ccc(C(F)F)cc2)cc1C(F)(F)F (centres unmarked) [I.55] | 2.55^[a] |
| CC(O)(Cn1cncn1)c1cnc(Oc2ccc(C(F)F)cc2)cc1C(F)(F)F (centres unmarked) [I.56] | 2.73^[a] |
| OC(Cn1cncn1)c1cnc(Oc2ccc(Cl)cc2F)cc1C(F)(F)F (centres unmarked) [I.57] | 2.86^[a] |
| CC(O)(Cn1cncn1)c1cnc(Oc2ccc(Cl)cc2F)cc1C(F)(F)F (centres unmarked) [I.58] | 3.02^[a] |
| OC(Cn1cncn1)c1ccc(Oc2ccc(S(F)(F)(F)(F)F)cc2)nc1C(F)(F)F (centres unmarked) [I.60] | 3.08^[a] |
| OC(Cn1cncn1)c1ccc(Oc2ccc(C(F)(F)F)cc2)nc1C(F)(F)F (centres unmarked) [I.61] | 2.84^[a] |
| CC(O)(Cn1cncn1)c1ccc(Oc2ccc(S(F)(F)(F)(F)F)cc2)nc1C(F)(F)F (centres unmarked) [I.62] | 3.25^[a] |
| OC(Cn1cncn1)c1cnc(Oc2ccc(Br)cc2)cc1C(F)F (centres unmarked) [I.63] | 2.59^[a] |
| CC(O)(Cn1cncn1)c1cnc(Oc2ccc(Cl)cc2)cc1C(F)F (centres unmarked) [I.64] | 2.68^[a] |
| CC(O)(Cn1cncn1)c1ccc(Oc2ccc(C(F)(F)F)cc2)nc1C(F)(F)F (centres unmarked) [I.65] | 3.04^[a] |

Same assay, conditions: Table 1, formula (I); LC-UV, neutral range, 0.001 molar ammonium acetate in water and acetonitrile

| SMILES | LogP [b] |
| --- | --- |
| CC(O)(Cn1cncn1)c1cnc(Oc2ccccc2)cc1Cl (centres unmarked) [I.05] | 2.06 |
| CC(O)(Cn1cncn1)c1ncc(Oc2ccccc2)cc1Cl (centres unmarked) [I.06] | 2.43 |
| CC(O)(Cn1cncn1)c1ccc(Oc2ccccc2)nc1Cl (centres unmarked) [I.07] | 2.09 |

Source: patent US20200008426A1, “ACTIVE COMPOUND COMBINATIONS” (BAYER AKTIENGESELLSCHAFT, priority 2017, published 2020)
